Patent US6696407B1, “Huntington's disease treatment comprising administering aldose reductase inhibitors to increase striatal CNTF” (The Regents of the University of California, priority 1997, dated 2004)
“Also recorded” adds a separate entry of the source.

Tests used:
CNTF = assay: Striatal CNTF levels by ELISA; format: in vivo, rat; conditions: adult rats, oral 50 mg/kg/day for two months
Experimental: CNTF protein was determined with an ELISA that utilizes a monoclonal capture antibody which recognizes a non-C-terminal epitope on both rat and human CNTF (Regeneron, Tarrytown, N.Y.). The captured CNTF was recognized by a polyclonal rabbit anti-rCNTF reporter antibody. An alkaline phosphatase-tagged goat anti-rabbit IgG was used to generate the signal. In practice, 96-well Immulon plates were coated with capture antibody overnight, then blocked and washed. After overnight incubation of standards and samples, plates were washed and reporter antibody added. Following final washes, the reaction was developed using the GIBCO BRL ELISA amplification system substrate and amplifier. The reaction was stopped with 0.5 N H2SO4 and the plates read at two wavelengths (490 nm and 650 nm).
ARIs Toirestat and Ponalrestat were orally administered to adult rats at a dose of 50 mg/kg/day for two months as described in Example 1 and in Mizisin et al (1997) Diabetes 46: 647-652. For each rat, the left and right striatum were dissected and combined for homogenization in phosphate buffered saline. CNTF levels in extract preparations were then measured by ELISA, as described in Example 1. Four rats served as controls, and five rats each received Tolrestat and Ponalrestat. Five ELISA assays were run for each rat and one mean value derived for each rat.

[1] = Dittrich et al. (1994); cited from earlier work

Molecule | Increase in striatal CNTF activity level versus control group (CNTF) | Plasma half-life [1] [min]
COc1ccc2c(C(=S)N(C)CC(=O)O)cccc2c1C(F)(F)F [Tolrestat, N-[[6-methoxy-5-(trifluoromethyl)-1-naphthalenyl]thioxomethyl]-N-methylglycine] | significantly increased; also recorded: approximately two-fold | 
CNTF: member of the neuropoietic cytokine family, a protein of 200 amino acids (protein, UniProt P26441 1-200, looked up) Ciliary neurotrophic factor: MAFTEHSPLTPHRRDLCSRSIWLARKIRSDLTALTESYVKHQGLNKNINLDSADGMPVASTDQWSELTEAERLQENLQAYRTFHVLLARLLEDQQVHFTPTEGDFHQAIHTLLLQVAAFAYQIEELMILLEYKIPRNEADGMPINVGDGGLFEKKLWGLKVLQELSQWTVRSIHDLRFISSHQTGIPARGSHYIANNKKM |  | 2.9
